Data reported in US20040265300A1, “Chimeric molecules containing a module able to target specific cells and a module regulating the apoptogenic function of the permeability transition pore complex (PTPC)” (priority 2001, published 2004).
Ends that are not written are not given here. Peptide text beside a SMILES is read from it. * marks the point of attachment. Biotin = O=C1N[C@H]2[C@H](CS[C@H]2CCCCC(=O)*)N1

How the values were obtained:
[1] = system: permeability transition pore (PTP); test: Swelling of isolated mitochondria (large amplitude swelling, 90° light scattering); assay type: biochemical, rat; design: key to Induction of Mitochondrial swelling (sw): +++ rapid sw; ++ low sw; + very low sw; − no sw; details: for Induction of Mitochondrial swelling (sw): 5 μM, t 20 min
Method: Mitochondria are purified from rat liver, as described (Costantini et al., 1996), and resuspended in 250 mM sucrose +0.1 mM EGTA +10 mM -tris[hydroxymethyl]methyl-2-Aminoethanesulfonic acid, pH=7.4). For the induction of PT, mitochondria (0.5 mg protein per ml) are resuspended in PT buffer (200 mM sucrose, 10 mM Tris-MOPS (pH 7.4), 5 MM Tris-succinate, 1 mM Tris-phosphate, 2 μM rotenone, and 10 μM EGTA-Tris), and monitored in an F4500 fluorescence spectrometer (Hitachi, Tokyo, Japan) for the 90° light scattering of light (545 nm) to determine large amplitude swelling after addition of 2 mM atractyloside (Atr), 1 μM cyclosporin A (CsA; Novartis, Basel, Switzerland), 5 μM CaCl2, and/or 0.5 to 20 μM of pTarg-pTox or pTarg-pSave. For the determination of the ΔΨm, mitochondria (0.5 mg protein per ml) are incubated in a buffer supplemented with 1μM rhodamine 123 (Molecular Probes, Eugene, OR) and the dequenching of rhodamine fluorescence (excitation 505 nm, emission 525 nm) is measured as described (Shimizu et al., 1998). Supernatants from mitochondria (6800 g for 15 min; then 20 000 g for 1 h; 4° C.) are frozen at −80° C. until determination of apoptogenic activity on isolated nuclei, DEVD-afc cleaving activity, and immunodetection of cytochrome c and AIF. Cytochrome c and AIF are detected by means of a monoclonal antibody (clone 7H8.2C12, Pharmingen) and a polyclonal rabbit anti-serum (Susin et al. 1999) respectively.

purified ANT = target: T1, purified ANT (Rattus norvegicus, UniProt Q05962); assay type: binding; details: for binding to purified ANT: surface plasmon resonance; for Kd: one ANT concentration only, 50 nM, read-out: relative affinities of ANT for the peptide
T1 sequence (Q05962 1-298): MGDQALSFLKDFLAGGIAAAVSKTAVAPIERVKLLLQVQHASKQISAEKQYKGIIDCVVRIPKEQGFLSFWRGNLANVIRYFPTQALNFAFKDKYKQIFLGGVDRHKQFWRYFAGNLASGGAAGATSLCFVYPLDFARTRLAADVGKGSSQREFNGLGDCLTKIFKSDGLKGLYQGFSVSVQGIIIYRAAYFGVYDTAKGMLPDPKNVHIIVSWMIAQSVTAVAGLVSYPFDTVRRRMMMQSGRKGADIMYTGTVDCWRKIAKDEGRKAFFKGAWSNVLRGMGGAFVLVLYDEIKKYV
Method: (§1) Sensor Chips SA (streptavidin coated sensor chips) were used for immobilisation of the different peptides. Tox1 was immobilised at a density of 0.7 ng/mm^2, Tox0 at a density of 3.7 ng/mm^2,. Ctrl Tox0 at a density of 1.4 ng/mm^2, Tox5 at a density of 1 ng/mm^2, Tox6 at a density of 1 ng/mm^2, Save 1 at a density of 1.3 ng/mm^2, and the control peptide at a density of 0.8 ng/mm^2. Association and dissociation kinetics of ANT and VDAC interactions were followed at a rate of 10 μL/min for 10 minutes (5 minutes association and 5 minutes dissociation). The ligand was regenerated with a 1 minute flux of KSCN 3M. The obtained sensorgrams were analysed by the B1Aeval 3.1 software using the method of double references (Myszka D.G. 2000. Kinetic, equilibrium and thermodynamic analysis of macromolecular interactions with BIACORE. Methods Enzymol. 323:325-340). From the sensorgrams with the ligands were first substracted the sensorgrams obtained with the corresponding analyte solvents. A second substraction was performed with the sensorgrams obtained with the control peptide ligand. The control peptide for the Tox and Save peptides was biot-H19C corresponding to the sequence of the β2-adrenergic receptor (Lebesgue D., Wallukat G., Mijares A., Granier C., Argibay J., and Hoebeke J. (1998) An agonist-like monoclonal antibody to the human β 2-adrenergic receptor. Eur.J. Pharmacol. 348:123-133). The control peptide for Tox0 was Ctr1 Tox0.

purified VDAC = purified VDAC (Homo sapiens, UniProt P21796); test: Surface plasmon resonance, immobilised peptides with purified VDAC; assay type: binding; details: for specific binding of VDAC: 50 nM VDAC
purified VDAC, sequence (P21796 whole entry, species assumed): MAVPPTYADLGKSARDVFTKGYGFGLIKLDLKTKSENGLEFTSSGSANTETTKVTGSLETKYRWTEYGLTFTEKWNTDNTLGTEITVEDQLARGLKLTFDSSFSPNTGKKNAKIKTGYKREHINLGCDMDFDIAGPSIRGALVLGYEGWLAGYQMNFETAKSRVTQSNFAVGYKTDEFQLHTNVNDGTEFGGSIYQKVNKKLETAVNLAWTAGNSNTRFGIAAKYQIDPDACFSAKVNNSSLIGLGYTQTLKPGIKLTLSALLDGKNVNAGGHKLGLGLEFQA
Method: as §1

Compound | binding to purified ANT (purified ANT) | specific binding of VDAC (purified VDAC) | Induction of Mitochondrial swelling (sw) [1] | other results
C=C1[C@@H]2CC[C@H]3[C@]4(C)C[C@H](O[C@@H]5O[C@H](CO)[C@@H](OS(=O)(=O)O)[C@H](OS(=O)(=O)O)[C@H]5OC(=O)CC(C)C)C[C@@H](C(=O)O)[C@H]4CC[C@]3(C2)[C@H]1O [Atractyloside, atractyloside, reference compound] |  |  |  | Mitrochondrial swelling (sw) % ([1]; 600 μM): 110%
[Ca+2] [Ca 2+, reference compound] |  |  |  | Mitrochondrial swelling (sw) % ([1]; 100 μM): 100%
C[C@H](NC(=O)[C@H](Cc1ccccc1)NC(=O)[C@H](Cc1ccc(O)cc1)NC(=O)[C@H](CCCNC(=N)N)NC(=O)[C@H](Cc1c[nH]c2ccccc12)NC(=O)[C@H](Cc1ccccc1)NC(=O)[C@H](CCC(N)=O)NC(=O)[C@@H](NC(=O)[C@H](CCCNC(=N)N)NC(=O)[C@H](CCCCN)NC(=O)[C@H](CC(=O)O)NC(=O)[C@H](CCCNC(=N)N)NC(=O)[C@H](CCCNC(=N)N)NC(=O)[C@H](CCCNC(=N)N)NC(=O)[C@H](CCC(N)=O)NC(=O)[C@H](CCCNC(=N)N)NC(=O)[C@H](CCCNC(=N)N)NC(=O)[C@H](CCCCN)NC(=O)[C@H](CCCCN)NC(=O)[C@H](CCCNC(=N)N)NC(=O)CCCC[C@@H]1SC[C@@H]2NC(=O)N[C@@H]21)[C@@H](C)O)C(=O)NCC(=O)N[C@@H](CC(N)=O)C(=O)O [Save1, Biot-RKKRRQRRR-DKRTQFWRYFAGN (hANT2)] (Biotin-RKKRRQRRRDKRTQFWRYFAGN-OH; C-terminus assumed) | Binds Purified ANT | did not result in any specific binding |  | 
C[C@@H](O)[C@H](NC(=O)[C@H](CCCNC(=N)N)NC(=O)[C@H](CCCCN)NC(=O)[C@H](CC(=O)O)NC(=O)CNC(=O)CNC(=O)[C@H](CS)NC(=O)[C@H](CCCNC(=N)N)NC(=O)CNC(=O)[C@H](CC(N)=O)NC(=O)[C@H](CS)NC(=O)CCCC[C@@H]1SC[C@@H]2NC(=O)N[C@@H]21)C(=O)N[C@@H](CCC(N)=O)C(=O)N[C@@H](Cc1ccccc1)C(=O)N[C@@H](Cc1c[nH]c2ccccc12)C(=O)N[C@@H](CCCNC(=N)N)C(=O)N[C@@H](Cc1ccc(O)cc1)C(=O)N[C@@H](Cc1ccccc1)C(=O)N1CCC[C@H]1C(=O)NCC(=O)N[C@@H](CC(N)=O)C(=O)O [Tox5, Biot-CNGRC-GG-DKRTQFWRYFPGN (hANT2m)] (Biotin-CNGRCGGDKRTQFWRYFPGN-OH; N-terminus and C-terminus assumed) | Binds Purified ANT | did not result in any specific binding | ++ | Kd (purified ANT): 0.1 nM
C[C@H](NC(=O)CCCC[C@@H]1SC[C@@H]2NC(=O)N[C@@H]21)C(=O)N[C@@H](CS)C(=O)N[C@@H](CC(=O)O)C(=O)N[C@@H](CS)C(=O)N[C@@H](CCCNC(=N)N)C(=O)NCC(=O)N[C@@H](CC(=O)O)C(=O)N[C@@H](CS)C(=O)N[C@@H](Cc1ccccc1)C(=O)N[C@@H](CS)C(=O)NCC(=O)NCC(=O)N[C@@H](CC(=O)O)C(=O)N[C@@H](CCCCN)C(=O)N[C@@H](CCCNC(=N)N)C(=O)N[C@H](C(=O)N[C@@H](CCC(N)=O)C(=O)N[C@@H](Cc1ccccc1)C(=O)N[C@@H](Cc1c[nH]c2ccccc12)C(=O)N[C@@H](CCCNC(=N)N)C(=O)N[C@@H](Cc1ccc(O)cc1)C(=O)N[C@@H](Cc1ccccc1)C(=O)N1CCC[C@H]1C(=O)NCC(=O)N[C@@H](CC(N)=O)C(=O)O)[C@@H](C)O [Tox6, Biot-ACDCRGDCFC-GG-DKRTQFWRYFPGN (hANT2m)] (Biotin-ACDCRGDCFCGGDKRTQFWRYFPGN-OH; N-terminus and C-terminus assumed) | Binds Purified ANT | did not result in any specific binding | ++ | Kd (purified ANT): 0.7 nM
Biot-CNGRC-GG-CNGRC [Ctr2Tox1] |  |  | − | 
Biot-CNGRC-GG-HFAIGCRHSAIG (Biotin-CNGRCGGHFAIGCRHSAIG; cysteine pairing not given here) [Ctr1Tox1] |  |  | − | 
Biot-CNGRC-GG-HFRIGCRHSRIG [Tox1] | Binds Purified ANT |  | ++ | association of VDAC with the peptide ligand (purified VDAC; VDAC concentrations ten times higher than ANT): extremely low association
Biot-GG-HFRIGCRHSRIG [Ctr3Tox1] |  |  | + | 
